According to patent US6172065A, “Urea and thiourea derivatives of substituted quinoxaline 2,3-diones as glutamate receptor antagonists” (Warner-Lambert Company, priority 1998, dated 2001):

Legend:
[1] = biological target: kainate site (non-NMDA receptor); experiment: Kainate site (non-NMDA receptor) binding affinity (London and Coyle method); conditions: Table 1, KA (kainate)
AMPA receptors = experiment: AMPA receptor binding affinity (Honore et al. method); conditions: Table 1, AMPA
[2] = biological target: T1, glycine site of the NMDA receptor (Rattus norvegicus, UniProt P35439); experiment: Glycine site of the NMDA receptor binding affinity (Jones et al. method); conditions: Table 1, GLY (glycine site of NMDA receptor)
T1 construct: from tissue

IC50 KA [1] | IC50 (AMPA receptors) | IC50 [2] | Structure (SMILES)
820 nM | 130 nM | 8 nM | Cc1c([N+](=O)[O-])cc2[nH]c(=O)c(=O)[nH]c2c1CN(C)C(=O)Nc1ccccc1 [Compound 1, 1-Methyl-1-(6-methyl-7-nitro-2,3-dioxo-1,2,3,4-tetrahydro-quinoxalin-5-ylmethyl)-3-phenyl-urea]
1120 nM | 170 nM | 5 nM | COc1ccc(NC(=O)N(C)Cc2c(C)c([N+](=O)[O-])cc3[nH]c(=O)c(=O)[nH]c23)cc1 [Compound 2, 3-(4-Methoxy-phenyl)-1-methyl-1-(6-methyl-7-nitro-2,3-dioxo-1,2,3,4-tetrahydro-quinoxalin-5-ylmethyl)-urea]
2540 nM | 230 nM | 40 nM | COc1ccc(NC(=S)N(C)Cc2c(C)c([N+](=O)[O-])cc3[nH]c(=O)c(=O)[nH]c23)cc1 [Compound 3, 3-(4-Methoxy-phenyl)-1-methyl-1-(6-methyl-7-nitro-2,3-dioxo-1,2,3,4-tetrahydro-quinoxalin-5-ylmethyl)-thiourea]
6700 nM | 3600 nM | 20 nM | Cc1ccc(NC(=O)N(C)Cc2c(C)c([N+](=O)[O-])cc3[nH]c(=O)c(=O)[nH]c23)c(C)c1 [Compound 4, 3-(2,4-Dimethyl-phenyl)-1-methyl-1-(6-methyl-7-nitro-2,3-dioxo-1,2,3,4-tetrahydro-quinoxalin-5-ylmethyl)-urea]
9540 nM | 3000 nM | 10 nM | COc1ccc(OC)c(NC(=O)N(C)Cc2c(C)c([N+](=O)[O-])cc3[nH]c(=O)c(=O)[nH]c23)c1 [Compound 5, 3-(2,5-Dimethoxy-phenyl)-1-methyl-1-(6-methyl-7-nitro-2,3-dioxo-1,2,3,4-tetrahydro-quinoxalin-5-ylmethyl)-urea]
7500 nM | 2850 nM | 10 nM | Cc1c([N+](=O)[O-])cc2[nH]c(=O)c(=O)[nH]c2c1CN(C)C(=O)Nc1ccccc1C(F)(F)F [Compound 6, 1-Methyl-1-(6-methyl-7-nitro-2,3-dioxo-1,2,3,4-tetrahydro-quinoxalin-5-ylmethyl)-3-(2-trifluoromethyl-phenyl)-urea]
18400 nM | 4110 nM | 10 nM | CCOC(=O)c1ccc(NC(=O)N(C)Cc2c(C)c([N+](=O)[O-])cc3[nH]c(=O)c(=O)[nH]c23)cc1 [Compound 7, 4-(3-Methyl-3-(6-methyl-7-nitro-2,3-dioxo-1,2,3,4-tetrahydro-quinoxalin-5-ylmethyl)ureido)-benzoic acid ethyl ester]
